{"source": "patent US20040037780A1", "about": "“Respiratory delivery for gene therapy and lentiviral delivery particle” (priority 2001, published 2004)", "key": {"nasal airway epithelium [1]": {"tested_on": "nasal airway epithelium", "assay": "Adenoviral (AdlLacZ) LacZ gene transfer into mouse nasal airway after detergent pre-treatment", "format": "in vivo, mice", "details": "4 μl detergent (SDS 0.25%, ZWIT 0.14%, DEOXY 0.17%) 1 h before AdlLacZ 1×10^9 pfu; 3 days; FIG. 7", "method": "The detergents tested were Sodium n-dodecyl sulfate (SDS), (an anionic detergent) at 0.25%, Zwittergent 3-14: N-Tetradecylsulfobetaine (ZWIT) (a zwitterionic detergent) at 0.14%, Cetyltrimethylammonium bromide (CTAB) (an ionic detergent) at 0.15%, Deoxycholic Acid (DEOXY) (an ionic detergent) at 0.17%, with phosphate buffered saline as a control.\nDetergents were made up fresh to nominated concentrations. A single 4 μl dose was used per mouse (all were approximately 20 gm body weight). An Adenoviral vector (AdlLacZ) dose of 1×10^9 pfu in 20 μl. Mice were anaesthetised with Xylamine/Ketamine i.m.; then suspended vertically (hanging on dorsal incisor teeth). The detergent dose was instilled into the nostril opening in one bolus via a micropipettor.\nThe mouse was set aside for one hour; re-anaesthetised as needed, 1 hour later 20 μl of viral vector was instilled into the same nostril. The mouse was allowed to recover and returned to caging. Three days later the mice were killed with CO2 excess, head removed and the nasal airways were flushed with fixative. These were taken through standard “X-gal” processing to reveal blue stained cells that represent LacZ gene transfer. Cells were processing to wax sections and stained with Safranin-O or haemotoxylin/oesin. Stained cells present along the perimeter of 3 standard cross-sections in the treated nasal airway were counted. […]"}, "nasal airway epithelium [2]": {"tested_on": "nasal airway epithelium", "assay": "Histological injury after dosing with LPC alone", "format": "in vivo, mouse", "details": "1% LPC alone"}, "[3]": {"tested_on": "CFTR-mediated chloride secretion", "assay": "Nasal TPD/ΔPD measurement of CFTR function after LVCFTR dosing", "format": "in vivo", "details": "homozygote cftr^tmlUnc mice, 1% LPC 1 h prior to PBS (control) instillation; 7 days later", "method": "C57B1/6 and cftr^tmlUnc mice (Snouwaert et al., 1992) were used under the approval of both the Women's and Children's Hospital and the University of Adelaide Animal Ethics Committees. C57B1/6 mice (6-7 weeks of age), or cftr^tmlUnc mice (8-20 weeks of age) were anaesthetised intramuscularly with 1 μl/g and 0.7 μl/g body weight respectively of a 3:2 mixture of xylazil (20 mg/ml):ketamine (100 mg/ml) respectively. Body temperature was maintained during anaesthesia with a heat pad, or heat lamp and during the recovery period the mice were placed in a 35° C. air chamber. For dosing, mice were suspended from their dorsal incisors (hindquarters supported) and pre-treatment solutions (4 μl of LPC (Sigma L-4129), or polidocanol (Sigma P-9641), prepared as w/v solutions in PBS) delivered as a bolus into the right nostril using a gel-loading tip (Finnpippette). […] The mice were monitored for respiratory distress and any loss of treatment solution was noted. […]\nCFTR gene expression: Mice were anaesthetised, suspended from their dorsal incisors (hindquarters supported) and a subcutaneous needle-agar bridge (as reference electrode) was placed in the abdomen. […] TPD values were measured (blinded) from chart paper recordings, and the ΔPD value was calculated by subtracting the TPD value recorded under basal conditions from the TPD value measured under low-chloride conditions. […]"}, "[4]": {"tested_on": "freshly-excised mouse nasal airway epithelium", "details": "unpublished data"}, "[5]": {"tested_on": "nasal airway surface epithelium", "assay": "Transepithelial potential difference (TPD) after penetrating agent, damage of epithelia", "format": "in vivo, mice", "details": "for recovery of TDP function: longer time course, FIG. 11", "text": "The method of choice for assessing an appropriate level of damage is by the measurement of transepithelial potential difference (TDP) (Middleton et al., 1994; Knowles et al., 1995; Lee et al., 1999). In general, damage to epithelium with penetrating agents cause at least opening of the tight junctions and this causes the resident negative TPD on the airway surface to go toward zero. If there is exfoliation (that is substantial damage) then the TPD goes to zero quickly and takes several days to return to normal because the epithelia cells have been stripped off and have to regenerate.\nMeasurement of TPD was performed under zero-chloride perfusion to give a larger baseline TPD value from which to measure change. Under these conditions the values are typically around −20 mV compared to about −5 mV if normal perfusion saline is used. Mice are anaesthetised, TPD cannula is inserted, then the detergent dose is instilled in the same nostril, the effect is then followed in this anterior part of the nose. The methods used for measuring TDP are largely as described in Parsons et al., 1998. For method for use in human see Middleton et al., 1994 and Knowles et al., 1995.\nThe dosage of detergent used is 4 μl of PBS, PDOC of LPC and is in line with methods used in the above examples. The solutions of detergent use are 0.01, 0.1 and 1.0%. The TDP value was determined 5 minutes after administration of the detergent. The values are presented graphically in FIG. 8. […] A score of 100% represents the pretest TDP value. […] A TDP value of less than about 60% is though to be preferable.\nThe same doses of LPC were used as for experiment 1 but TDP was measured at 2, 5 and 10 minutes after administration. The data are presented graphically in FIG. 9. […] Thus should 0.01% LPC be used for treatment of the lung then lentivirus should be delivered within 10 minutes.\nThis uses that same doses of PDOC as in experiment 1 and as in experiment 2 TDP was measured at 2, 5 and 10 minutes after administration. The data from this experiment are presented graphically in FIG. 10.\nTDP was measured over a longer time course using PDOC as the penetrating agent. The doses used in this experiment were (per mouse) 10 μl of 1.0% PDOC, 4 μl of 1.0% PDOC and 4 μl of 0.1% PDOC. […] A recovery of TDP function within about 1 day is considered to be transient."}, "nasal airway epithelium [6]": {"tested_on": "nasal airway epithelium", "assay": "LV-mediated LacZ gene transfer into mouse nasal airway (X-gal, count of LacZ positive cells)", "format": "in vivo, C57B1/6 mice", "details": "for LacZ positive cells ± SEM: 3 standard cross-sections, n=3"}, "A549": {"tested_on": "A549", "assay": "Effect of detergent on viral gene transfer in vitro, non-polarised cells", "format": "cell-based", "details": "AdV5CMVLacZ vector added 10, 30 and 60 mins following polidocanol treatment", "method": "(§1) The effect of detergents (polidocanol and lysophospatidylcholine) on the level of viral gene transfer were firstly evaluated in vitro.\n(§2) Initial experiments made use of the AdV5CMVLacZ vector (a generous gift from Dr. R. C. Boucher). […] This dose of polidocanol was assessed on polarised cells (MDCK) and also non-polarised cells (A549). The AdV vector was added at 10, 30 and 60 mins following treatment. […] When the experiments were repeated using the LV vector we found the same effect."}, "MDCK": {"tested_on": "MDCK", "assay": "Effect of detergent on viral gene transfer in vitro, polarised cells", "format": "cell-based", "details": "AdV5CMVLacZ vector added 10, 30 and 60 mins following polidocanol treatment, P<0.05", "method": "as §1, §2"}, "[7]": {"details": "0.1% pre-treatment (4 μl) 1 h before 20 μl LVLacZa (6×10^4 NIH3T3-TU), 7 days"}, "[8]": {"details": "1% pre-treatment (4 μl), then PBS instead of vector, 7 days"}}}
{"compound": "CCCCCCCCCCCCOS(=O)(=O)[O-].[Na+]", "note": "[SDS, Sodium n-dodecyl sulfate]", "values": [{"measurement": "numbers of transductants over the control PBS, respiratory cells", "setting": "nasal airway epithelium [1]", "result": "considerable increase in numbers of transductants"}]}
{"compound": "CCCCCCCCCCCCCC[N+](C)(C)CCCS(=O)(=O)[O-]", "note": "[Zwit, N-Tetradecylsulfobetaine]", "values": [{"measurement": "numbers of transductants over the control PBS, respiratory cells", "setting": "nasal airway epithelium [1]", "result": "considerable increase in numbers of transductants"}]}
{"compound": "lysophosphatidylcholine [LPC]", "values": [{"measurement": "histological injury observed immediately after dosing", "setting": "nasal airway epithelium [2]", "result": "limited areas of deciliation or exfoliation found anteriorly close the dosed site"}, {"measurement": "ΔPD", "setting": "[3]", "result": "+8±3.2 mV"}, {"measurement": "effect on cilial beat", "setting": "[4]", "result": "dose-dependant reversibility of reduction in cilial beat"}, {"measurement": "TPD relative to pretest TPD", "setting": "[5]; 4 μl of 0.01% LPC, after 10 minutes, FIG. 9", "result": "not significantly different to pretest TPD"}, {"measurement": "LacZ positive cells ± SEM", "setting": "nasal airway epithelium [6]; [7]", "result": "4.3 ± 0.7"}, {"measurement": "increase in the level of LV-mediated transduction compared to pre-treatment with 1% polidocanol", "setting": "nasal airway epithelium [6]; 1% LPC pre-treatment, LVLacZa, 7 days", "result": 4, "unit": "fold"}, {"measurement": "LacZ positive cells ± SEM", "setting": "nasal airway epithelium [6]; [8]", "result": "0.0 ± 0.0"}]}
{"compound": "polybrene", "values": [{"measurement": "number of LacZ positive cells", "setting": "nasal airway epithelium [6]; 1% LPC pre-treatment, LVLacZa vector preparation containing 4 μg/ml polybrene, 7 days", "result": "5.0±1.0"}, {"measurement": "decrease in the number of LacZ positive cells on inclusion of polybrene in the LVLacZa preparation", "setting": "nasal airway epithelium [6]; 1% LPC pre-treatment, vs polybrene-free LVLacZa, P=0.002", "result": 4, "unit": "fold"}]}
{"compound": "polyoxyethylene 9-lauryl ether [PDOC]", "values": [{"measurement": "level of gene transfer between vector instillation times", "setting": "A549", "result": "no apparent difference"}, {"measurement": "gene transfer when vector added one hour after treatment compared to shorter time points", "setting": "MDCK", "result": "significantly improved"}, {"measurement": "effect on TDP value", "setting": "[5]; 4 μl of 0.01, 0.1 and 1.0% solutions, 5 minutes after administration, FIG. 8", "result": "greater effect on TDP value than LPC"}, {"measurement": "recovery of TDP function", "setting": "[5]; 4 μl of 0.1% PDOC", "result": "rapidly recovers"}, {"measurement": "recovery of TDP function", "setting": "[5]; 10 μl of 1.0% PDOC and 4 μl of 1.0% PDOC (first two doses)", "result": "extended"}, {"measurement": "LacZ positive cells ± SEM", "setting": "nasal airway epithelium [6]; [7]", "result": "2.7 ± 0.3"}, {"measurement": "LacZ positive cells ± SEM", "setting": "nasal airway epithelium [6]; 1% pre-treatment (4 μl) 1 h before 20 μl LVLacZa (6×10^4 NIH3T3-TU), polybrene-free, 7 days", "result": "5.3 ± 1.3"}, {"measurement": "LacZ positive cells ± SEM", "setting": "nasal airway epithelium [6]; [8]", "result": "0.0 ± 0.0"}]}
